The values below come from US11999727B2 (Tango Therapeutics, Inc., priority 2020, dated 2024).

The target in assay [1] is T1, PRMT5 (Homo sapiens, UniProt O14744).
T1 construct: purchased Viva (custom protein)
Kind of assay: PRMT5 biochemical IC50 assay with SAM as cofactor. Conditions: PRMT5, SAM as cofactor; read-out: SAM IC50.

For assay [2], the target named is T1, PRMT5. Put plainly: PRMT5 biochemical IC50 assay with no cofactor. Conditions: PRMT5, no cofactor. The text has this: Table 1 indicates IC50 values (μM) against PRMT5 for exemplary compounds in the presence of SAM as cofactor, with no cofactor, and with MTA as cofactor, respectively (columns 4-6). […] Ki values can be calculated from the IC50 values as described in the Examples section. As detailed in the Examples section, for the assay performed in the presence of SAM, IC50=Ki×1.5 (Ki=IC50/1.5).

Assay [3] addresses T1, PRMT5. Kind of assay: PRMT5 biochemical IC50 assay with MTA as cofactor. Conditions: PRMT5, MTA as cofactor; read-out: MTA IC50.
Assay [4] relates to HAP1 MTAP-intact cell line. Put plainly: SDMA in-cell western assay, HAP1 MTAP-intact. The class given is cell-based. Conditions: Homo sapiens, HAP1, SDMA in-cell western, HAP1 MTAP-intact; read-out: MTAP HAP1 intact IC50. The essentials: (§1)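 Isogenic HAP1 pair: the MTAP-intact line expresses endogenous MTAP, and the deleted line is MTAP-null. Symmetric dimethylarginine was detected by in-cell western and IC50 values derived for each line.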

The subject of assay [5] is HAP1 MTAP-deleted cell line. Put plainly: SDMA in-cell western assay, HAP1 MTAP-deleted. It is filed as cell-based. Conditions: for IC50: Homo sapiens, HAP1, SDMA in-cell western, HAP1 MTAP-deleted; for MTAP intact/deleted ratio: SDMA in-cell western. An outline of the steps:
as §1

Assay [6] relates to HAP1 MTAP-deleted cell line. Put plainly: Viability assay, MTAP-deleted cell line. The class given is cell-based. Conditions: Homo sapiens, read-out: HAP1 MTAP deleted viability. The text has this: Table 1 additionally indicates IC50 values in a viability assay for the MTAP-deleted cell line (column 10), indicating the effect of treatment with compound on cell survival.
The mark [7] stands for this setting: read-out: HAP1 MTAP deleted IC50.
[8] abbreviates: IC50 ratio HAP1 MTAP-intact vs HAP1 MTAP-deleted.
[9] abbreviates: HAP1, viability assay, MTAP-deleted cell line.
Where [10] appears, read: read-out: No Cofactor/ rel IC50.
The mark [11] stands for this setting: read-out: HAP 1 MTAP deleted IC50.
Setting [12] is: HAP1, viability, HAP1 MTAP-deleted cell line.
[13] abbreviates: IC50 ratio HAP1 MTAP-intact / HAP1 MTAP-deleted.

Some results are limits rather than exact numbers.

T1 sequence (O14744 whole entry): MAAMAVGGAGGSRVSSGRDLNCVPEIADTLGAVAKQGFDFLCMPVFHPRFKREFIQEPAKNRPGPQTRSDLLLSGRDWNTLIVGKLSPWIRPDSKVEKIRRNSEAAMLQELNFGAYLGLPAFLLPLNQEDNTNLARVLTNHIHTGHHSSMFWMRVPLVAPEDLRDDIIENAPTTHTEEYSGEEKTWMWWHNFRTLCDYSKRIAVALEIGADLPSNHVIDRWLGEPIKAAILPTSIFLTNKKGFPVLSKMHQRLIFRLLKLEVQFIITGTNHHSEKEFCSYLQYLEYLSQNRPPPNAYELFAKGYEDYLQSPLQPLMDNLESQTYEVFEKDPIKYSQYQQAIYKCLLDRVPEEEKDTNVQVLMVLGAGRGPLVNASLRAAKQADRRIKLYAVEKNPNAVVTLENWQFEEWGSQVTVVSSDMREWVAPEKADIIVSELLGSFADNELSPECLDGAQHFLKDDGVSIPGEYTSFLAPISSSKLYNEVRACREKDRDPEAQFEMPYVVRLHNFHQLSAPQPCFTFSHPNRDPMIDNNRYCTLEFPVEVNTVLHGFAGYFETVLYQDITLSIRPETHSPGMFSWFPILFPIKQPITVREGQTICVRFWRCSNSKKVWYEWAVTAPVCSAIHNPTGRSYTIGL
T1 sequence (Q9BQA1 whole entry partner): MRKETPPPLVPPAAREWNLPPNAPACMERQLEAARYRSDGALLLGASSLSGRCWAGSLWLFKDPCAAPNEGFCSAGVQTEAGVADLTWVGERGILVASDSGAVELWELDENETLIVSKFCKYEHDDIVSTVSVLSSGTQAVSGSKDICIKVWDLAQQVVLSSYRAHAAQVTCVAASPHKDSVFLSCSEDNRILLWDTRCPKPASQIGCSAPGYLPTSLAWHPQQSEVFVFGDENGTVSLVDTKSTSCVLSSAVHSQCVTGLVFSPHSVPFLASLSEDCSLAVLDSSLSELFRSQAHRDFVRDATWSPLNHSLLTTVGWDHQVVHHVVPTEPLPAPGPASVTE

For the compound `Cc1cc(NC(=O)C(=O)N2C[C@H](C)[C@H](CC(C)C)C[C@H]2c2ccc3scnc3c2)cnc1N` (single isomer, unassigned) [Compound 1190], the IC50 on PRMT5 [1] was 50 to 500 nM; at PRMT5 [2] (read-out: No Cofactor/rel IC50) it was less than 50 nM; on PRMT5 [3], less than 50 nM; in assay [4], 100 to 1000 nM; in assay [5] (setting [7]) it was less than 100 nM; in assay [6] (setting [9]), less than 1000 nM. Further, the MTAP intact/deleted ratio result in assay [5] (setting [8]) is reported as “A (an IC50 ratio greater than or equal to 10 fold)”.
Take `Cc1cc(NC(=O)C(=O)N2C[C@H](C)CC[C@H]2c2cc(F)c3[nH]ncc3c2)cnc1N` (single isomer, unassigned) [Compound 1191]: the IC50 at PRMT5 [1] was more than 500 nM; on PRMT5 [2] (read-out: No Cofactor/rel IC50), more than 500 nM; at PRMT5 [3] it was more than 500 nM; in assay [4], more than 1000 nM; in assay [5] (setting [7]), more than 1000 nM; in assay [6] (setting [9]), more than 10000 nM.
Turning to `Cc1cc(NC(=O)C(=O)N2C[C@H](C)CC[C@H]2c2ccc(N3CCN(C)CC3)cc2)cnc1N` (single isomer, unassigned) [Compound 1193], the IC50 on PRMT5 [1] was more than 500 nM; at PRMT5 [2] (read-out: No Cofactor/rel IC50) it was more than 500 nM; at PRMT5 [3], more than 500 nM; in assay [4], more than 1000 nM; in assay [5] (setting [7]), more than 1000 nM; in assay [6] (setting [9]), more than 10000 nM.
On to `CCc1cc(NC(=O)C(=O)N2C[C@@H](C)CC[C@@H]2c2ccc3sc(CCN(C)C)nc3c2)cnc1N` (single isomer, unassigned) [Compound 1196], for which the IC50 at PRMT5 [1] was less than 50 nM; on PRMT5 [2] (read-out: No Cofactor/rel IC50) it was less than 50 nM; at PRMT5 [3], less than 50 nM; in assay [4] it was less than 100 nM; in assay [5] (setting [7]), less than 100 nM; in assay [6] (setting [9]) it was less than 1000 nM. Besides, the MTAP intact/deleted ratio entry in assay [5] (setting [8]) is “A (an IC50 ratio greater than or equal to 10 fold)”.
With `CCc1cc(NC(=O)C(=O)N2C[C@@H](C)CC[C@@H]2c2ccc(N3CC[C@H]4CCN(C)C[C@H]4C3)cc2)cnc1N` (single isomer, unassigned) [Compound 1204], the IC50 was 50 to 500 nM on PRMT5 [1]; less than 50 nM at PRMT5 [2] (read-out: No Cofactor/rel IC50); less than 50 nM on PRMT5 [3]; 100 to 1000 nM in assay [4]; less than 100 nM in assay [5] (setting [7]); less than 1000 nM in assay [6] (setting [9]). Also, the MTAP intact/deleted ratio entry in assay [5] (setting [8]) is given as “A (an IC50 ratio greater than or equal to 10 fold)”.
Turning to `C[C@H]1CC[C@H](c2ccc3cncn3c2)N(C(=O)C(=O)Nc2cnc(N)c(C3CC3)c2)C1` (single isomer, unassigned) [Compound 1205, N-(6-amino-5-cyclopropylpyridin-3-yl)-2-(2-(imidazo[1,5-a]pyridin-6-yl)-5-methylpiperidin-1-yl)-2-oxoacetamide], the IC50 on PRMT5 [1] is less than 50 nM; at PRMT5 [2] (read-out: No Cofactor/rel IC50), less than 50 nM; on PRMT5 [3], less than 50 nM; in assay [4] it was 100 to 1000 nM; in assay [5] (setting [7]) it was less than 100 nM; in assay [6] (setting [9]) it was less than 1000 nM. Moreover, in assay [5] (setting [8]), the MTAP intact/deleted ratio result is listed as “A (an IC50 ratio greater than or equal to 10 fold)”.
With `C[C@H]1CN(C(=O)C(=O)Nc2cnc(N)c(C3CC3)c2)[C@H](c2ccc3scnc3c2)CC1(F)F` (single isomer, unassigned) [Compound 1207], the IC50 is 50 to 500 nM on PRMT5 [1]; 50 to 500 nM on PRMT5 [2] (read-out: No Cofactor/rel IC50); 50 to 500 nM at PRMT5 [3]; 100 to 1000 nM in assay [4]; less than 100 nM in assay [5] (setting [7]); less than 1000 nM in assay [6] (setting [9]). The MTAP intact/deleted ratio result in assay [5] (setting [8]) was “A (an IC50 ratio greater than or equal to 10 fold)”.
`CCc1cc(NC(=O)C(=O)N2C[C@@H](C)CC[C@@H]2c2ccc(N3CCN(C(C)C)CC3)cc2)cnc1N` (single isomer, unassigned) [Compound 1208]: the IC50 on PRMT5 [1] is 50 to 500 nM; on PRMT5 [2] (read-out: No Cofactor/rel IC50) it was less than 50 nM; on PRMT5 [3], less than 50 nM; in assay [4] it was 100 to 1000 nM; in assay [5] (setting [7]) it was less than 100 nM; in assay [6] (setting [9]), less than 1000 nM. The MTAP intact/deleted ratio entry in assay [5] (setting [8]) is “A (an IC50 ratio greater than or equal to 10 fold)”.
Turning to `Cc1cc(NC(=O)C(=O)N2C[C@H](C)[C@@H](CC(C)C)C[C@H]2c2ccc3scnc3c2)cnc1N` (single isomer, unassigned) [Compound 1210], the IC50 on PRMT5 [1] is 50 to 500 nM; on PRMT5 [2] (read-out: No Cofactor/rel IC50), 50 to 500 nM; at PRMT5 [3], less than 50 nM; in assay [4], more than 1000 nM; in assay [5] (setting [7]), 100 to 1000 nM; in assay [6] (setting [9]) it was 1000 to 10000 nM.
Take `COCc1nc2cc([C@H]3CC[C@H](C)CN3C(=O)C(=O)Nc3cnc(N)c(C)c3)ccc2s1` (single isomer, unassigned) [Compound 1211]: the IC50 on PRMT5 [1] was 50 to 500 nM; on PRMT5 [2] (read-out: No Cofactor/rel IC50), 50 to 500 nM; at PRMT5 [3] it was less than 50 nM; in assay [4], less than 100 nM; in assay [5] (setting [7]) it was less than 100 nM; in assay [6] (setting [9]) it was less than 1000 nM. Further, the MTAP intact/deleted ratio entry in assay [5] (setting [8]) is given as “A (an IC50 ratio greater than or equal to 10 fold)”.
`Cc1cc(NC(=O)C(=O)N2C[C@@H](C)[C@@H](OC(F)(F)F)C[C@@H]2c2ccc(F)cc2)cnc1N` (single isomer, unassigned) [Compound 1213]: the IC50 was 50 to 500 nM on PRMT5 [1]; less than 50 nM on PRMT5 [2] (read-out: No Cofactor/rel IC50); less than 50 nM on PRMT5 [3]; 100 to 1000 nM in assay [4]; less than 100 nM in assay [5] (setting [7]); less than 1000 nM in assay [6] (setting [9]). For the same compound, the MTAP intact/deleted ratio result in assay [5] (setting [8]) was “A (an IC50 ratio greater than or equal to 10 fold)”.
Consider `C[C@@H]1CC[C@@H](c2ccc3sc(CCN(C)C)nc3c2)N(C(=O)C(=O)Nc2cnc(N)c(C3CC3)c2)C1` (single isomer, unassigned) [Compound 1218], for which the IC50 is less than 50 nM on PRMT5 [1]; less than 50 nM on PRMT5 [2] (read-out: No Cofactor/rel IC50); less than 50 nM on PRMT5 [3]; less than 100 nM in assay [4]; less than 100 nM in assay [5] (setting [7]); less than 1000 nM in assay [6] (setting [9]). For the same compound, the MTAP intact/deleted ratio entry in assay [5] (setting [8]) was “A (an IC50 ratio greater than or equal to 10 fold)”.
Consider `Cc1cc(NC(=O)C(=O)N2C[C@@H](C)CC[C@@H]2c2cccc(N3CCN(C)CC3)c2)cnc1N` (single isomer, unassigned) [Compound 1229], for which the IC50 was less than 50 nM at PRMT5 [1]; less than 50 nM on PRMT5 [2] (read-out: No Cofactor/rel IC50); less than 50 nM on PRMT5 [3]; less than 100 nM in assay [4]; less than 100 nM in assay [5] (setting [7]); less than 1000 nM in assay [6] (setting [9]). For the same compound, the MTAP intact/deleted ratio result in assay [5] (setting [8]) is “B (an IC50 ratio greater than or equal to 3 fold but lower than 10 fold)”.
Consider `CCc1cc(NC(=O)C(=O)N2C[C@H](C)CC[C@H]2c2ccc(N3CCN(C(C)C)CC3)cc2)cnc1N` (single isomer, unassigned) [Compound 1234], for which the IC50 on PRMT5 [1] was more than 500 nM; at PRMT5 [2] (read-out: No Cofactor/rel IC50), more than 500 nM; at PRMT5 [3], more than 500 nM; in assay [4] it was more than 1000 nM; in assay [5] (setting [7]) it was more than 1000 nM; in assay [6] (setting [9]) it was 1000 to 10000 nM.
Regarding `CO[C@@H]1C[C@@H](c2ccc3scnc3c2)N(C(=O)C(=O)Nc2cnc(N)c(C3CC3)c2)C[C@@H]1C` (single isomer, unassigned) [Compound 1241], the IC50 was more than 500 nM at PRMT5 [1]; more than 500 nM on PRMT5 [2] (setting [10]); more than 500 nM on PRMT5 [3]; more than 1000 nM in assay [4]; more than 1000 nM in assay [5] (setting [11]); 1000 to 10000 nM in assay [6] (setting [12]).
On to `CCc1cc(NC(=O)C(=O)N2C[C@@H](C)CC[C@@H]2c2ccc(N3CCC4(CCCN(C)C4)CC3)cc2)cnc1N` (single isomer, unassigned) [Compound 1243], for which the IC50 at PRMT5 [1] is 50 to 500 nM; at PRMT5 [2] (setting [10]), less than 50 nM; on PRMT5 [3], less than 50 nM; in assay [4] it was 100 to 1000 nM; in assay [5] (setting [11]), less than 100 nM; in assay [6] (setting [12]), less than 1000 nM. The “MTAP intact/deleted ratio” value in assay [5] (setting [13]) is reported as “A (an IC50 ratio greater than or equal to 10 fold)”.
As for `C[C@@H]1CC[C@@H](c2ccc3c(cnn3CCN(C)C)c2)N(C(=O)C(=O)Nc2cnc(N)c(C3CC3)c2)C1` (single isomer, unassigned) [Compound 1249], the IC50 on PRMT5 [1] was 50 to 500 nM; on PRMT5 [2] (setting [10]) it was less than 50 nM; at PRMT5 [3], less than 50 nM; in assay [4], 100 to 1000 nM; in assay [5] (setting [11]), less than 100 nM; in assay [6] (setting [12]) it was less than 1000 nM. The “MTAP intact/deleted ratio” value in assay [5] (setting [13]) is on record as “A (an IC50 ratio greater than or equal to 10 fold)”.
Consider `C[C@H]1CC[C@H](c2ccc3[nH]ncc3c2)N(C(=O)C(=O)Nc2cnc(N)c(C3CC3)c2)C1` (single isomer, unassigned) [Compound 1251], for which the IC50 on PRMT5 [1] is less than 50 nM; at PRMT5 [2] (setting [10]) it was less than 50 nM; on PRMT5 [3], less than 50 nM; in assay [4], less than 100 nM; in assay [5] (setting [11]), less than 100 nM; in assay [6] (setting [12]) it was less than 1000 nM. Also, in assay [5] (setting [13]), the “MTAP intact/deleted ratio” value is “A (an IC50 ratio greater than or equal to 10 fold)”.
